The source of these data is US8666718B2, “Structure of the C-terminal region of the insulin receptor α-chain and of the insulin-like growth factor receptor α-chain” (The Walter and Eliza Hall Institute of Medical Research, priority 2009, dated 2014).

Test [1] concerns the target T1, IR485 pre-complexed with a 10-fold molar ratio of IR classical αCT peptide (Homo sapiens, UniProt P06213, I448T/Q492K/Y171H).
T1 construct: host or cells: Lec8 mutant CHO cells (IR485)
Description: ITC titration against IR485 pre-complexed with a 10-fold molar ratio of IR αCT peptide. It counts as binding. The settings on record: 25° C., IR485 + 10 × IR-αCT, mean of three ± SEM. On the procedure:
(§1) The IR485 construct of human IR was expressed in Lec8 mutant CHO cells and purified by gel filtration chromatography as described previously (Lou et al., 2006). IR485 consists of the first 485 residues of the mature human insulin receptor followed by the 16-residue sequence […] (SEQ ID NO: 10), which comprises a serine residue followed by an enterokinase cleavage site and a c-myc epitope tag. The c-myc tag was not removed for the ITC studies described here. IR485 was concentrated to 30 mg/ml in Tris-buffered saline (TBSA; 24.8 mM Tris-HCl (pH 8.0), 137 mM NaCl, 2.7 mM KCl and 0.02% sodium azide) using an Ultrafree centrifugal concentrator (Millipore, USA). Porcine insulin (Sigma-Aldrich, USA) was prepared in a zinc-free-form (termed ZFP-insulin) by extensive dialysis against 0.1% (v/v) acetic acid followed by lyophilization.
Peptides were prepared by dissolving in 10 mM HCl at ˜4 mg/ml concentration and then diluting with TBSA. Oxidation of peptides S519N20 and S519 (which contain two cysteine residues) was carried out by incubating the respective peptide (prepared at 1 mg/ml in 50 mM ammonium bicarbonate adjusted to pH 8.5 with ammonia solution) in the dark at room temperature for 2 days and then lyophilizing before use. […] All protein concentrations were determined by absorbance measurement at 280 nm using a NanoDrop 1000 spectrophotometer (Thermo Scientific, USA).
ITC experiments were performed using a VP-ITC isothermal titration calorimeter (MicroCal Inc., USA) with the calorimeter cell held at 25° C. All samples were degassed prior to injection or placement into the cell, and the instrument was temperature equilibrated prior to the start of the injections. In all experiments the volume of sample placed in the cell was 1.4 ml and the titrant was injected in 7 μl volumes over 14 s at 3 min intervals, with the total number of injections being 40. […] Data were analyzed using the instrument's software incorporated within the Origin 7 software (OriginLab, USA) and in all cases fitted as a single-site interaction using the methodologies outlined in the instrument's manual.
A general note: ITC needs no label: the signal is the heat of the interaction.

The target in test [2] is T2, IR485 (first three N-terminal domains of the human insulin receptor) (Homo sapiens, UniProt P06213, I448T/Q492K/Y171H).
T2 construct: made in house; host or cells: Lec8 mutant CHO cells
T2 sequence (P06213 with tags, fused parts or gaps Y171H/I448T/Q492K): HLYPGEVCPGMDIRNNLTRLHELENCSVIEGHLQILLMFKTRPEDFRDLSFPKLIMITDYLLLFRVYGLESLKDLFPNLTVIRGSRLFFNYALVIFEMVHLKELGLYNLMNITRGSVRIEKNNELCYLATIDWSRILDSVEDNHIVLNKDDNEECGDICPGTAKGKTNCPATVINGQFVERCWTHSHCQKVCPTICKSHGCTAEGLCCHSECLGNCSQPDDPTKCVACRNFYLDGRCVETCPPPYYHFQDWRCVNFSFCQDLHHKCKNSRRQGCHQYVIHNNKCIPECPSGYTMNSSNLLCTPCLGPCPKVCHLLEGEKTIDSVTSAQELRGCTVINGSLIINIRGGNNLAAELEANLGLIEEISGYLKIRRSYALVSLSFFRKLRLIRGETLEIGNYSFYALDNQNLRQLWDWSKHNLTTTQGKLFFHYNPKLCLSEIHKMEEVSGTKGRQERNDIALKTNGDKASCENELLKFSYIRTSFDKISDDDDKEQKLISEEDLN
Description: ITC titration of hormones, αCT peptides and insulin mimetic peptides against IR485. To be noted: for ΔH^0 / −TΔS^0: sample IR485 alone, mean of three ± SEM. It counts as binding. An excerpt:
In order to study ligand binding to the first three domains of IR ectodomain, isothermal titration calorimetry (ITC) was used. ITC allowed a direct assay of the interactions between the IR ectodomain classical αCT peptide (residues 704-719; SEQ ID NO: 11) and IR485 (a construct consisting of the first three N-terminal domains of the IR; SEQ ID NO: 10), as well as the interaction between the analogous peptide of human IGF-1R and IR485. At the same time the thermodynamics of binding of the N- and C-terminal segments of the insulin mimetic peptide S519 (Schäffer et al., 2003) to IR485, as well as the binding of S519 itself to IR485 were examined. S519 ([…]; SEQ ID NO: 16) is a 36-residue peptide resulting from the affinity-optimization of two covalently-linked peptides, S371, a so-called “Site 1” peptide, and S446, a so-called “Site 2” peptide (Pillutla et al., 2002). […] Finally, the binding to IR485 of the IR αCT peptide carrying a F714A mutation (residues 704-719, […]; SEQ ID NO: 12) was examined.
The IR485 construct of human IR was expressed in Lec8 mutant CHO cells and purified by gel filtration chromatography as described previously (Lou et al., 2006). IR485 consists of the first 485 residues of the mature human insulin receptor followed by the 16-residue sequence […] (SEQ ID NO: 10), which comprises a serine residue followed by an enterokinase cleavage site and a c-myc epitope tag. The c-myc tag was not removed for the ITC studies described here. IR485 was concentrated to 30 mg/ml in Tris-buffered saline (TBSA; 24.8 mM Tris-HCl (pH 8.0), 137 mM NaCl, 2.7 mM KCl and 0.02% sodium azide) using an Ultrafree centrifugal concentrator (Millipore, USA). Porcine insulin (Sigma-Aldrich, USA) was prepared in a zinc-free-form (termed ZFP-insulin) by extensive dialysis against 0.1% (v/v) acetic acid followed by lyophilization. Human IGF-I was obtained from Novozymes GroPep (Australia) as “receptor grade” material.
The IR classical αCT peptide (residues 704-719, […]; SEQ ID NO: 11), the IGF-1R classical αCT peptide (residues 691-706, […]; SEQ ID NO: 14) as well as the F714A mutant of IR αCT (denoted IR αCT.714A; SEQ ID NO: 12) were obtained from Genscript Corporation (USA) at the >98% level of purity. The S519N20 peptide ([…]; SEQ ID NO: 17) and the S519C16 peptide ([…]; SEQ ID NO: 18) were obtained from AusPep (Australia) at the >90% level of purity. The S519 peptide ([…]; SEQ ID NO: 16) was obtained from Activotec (UK) at the >85% purity. Peptides were prepared by dissolving in 10 mM HCl at ˜4 mg/ml concentration and then diluting with TBSA. Oxidation of peptides S519N20 and S519 (which contain two cysteine residues) was carried out by incubating the respective peptide (prepared at 1 mg/ml in 50 mM ammonium bicarbonate adjusted to pH 8.5 with ammonia solution) in the dark at room temperature for 2 days and then lyophilizing before use. Oxidation was complete as determined by analysis with Ellman's reagent (5,5′-dithiobis-2-nitrobenzoate). All protein concentrations were determined by absorbance measurement at 280 nm using a NanoDrop 1000 spectrophotometer (Thermo Scientific, USA).
ITC experiments were performed using a VP-ITC isothermal titration calorimeter (MicroCal Inc., USA) with the calorimeter cell held at 25° C. All samples were degassed prior to injection or placement into the cell, and the instrument was temperature equilibrated prior to the start of the injections. In all experiments the volume of sample placed in the cell was 1.4 ml and the titrant was injected in 7 μl volumes over 14 s at 3 min intervals, with the total number of injections being 40. The sample contents were stirred at a speed of 310 rpm over the duration of the titration. All titrants (i.e. ZFP-insulin, IGF-I, IR αCT peptide, IGF-1R αCT peptide, IR αCT.714A peptide, S519, S519N20, and […]) were first injected into a solution of TBSA alone in order ascertain the heat of dilution, which was then subtracted from the data of interest as appropriate. […]

Test [3] deals with human IR (Homo sapiens, UniProt P06213). To be noted: Schäffer et al., 2003; cited from earlier work.
Chain of human IR (P06213 28-758 limits assumed): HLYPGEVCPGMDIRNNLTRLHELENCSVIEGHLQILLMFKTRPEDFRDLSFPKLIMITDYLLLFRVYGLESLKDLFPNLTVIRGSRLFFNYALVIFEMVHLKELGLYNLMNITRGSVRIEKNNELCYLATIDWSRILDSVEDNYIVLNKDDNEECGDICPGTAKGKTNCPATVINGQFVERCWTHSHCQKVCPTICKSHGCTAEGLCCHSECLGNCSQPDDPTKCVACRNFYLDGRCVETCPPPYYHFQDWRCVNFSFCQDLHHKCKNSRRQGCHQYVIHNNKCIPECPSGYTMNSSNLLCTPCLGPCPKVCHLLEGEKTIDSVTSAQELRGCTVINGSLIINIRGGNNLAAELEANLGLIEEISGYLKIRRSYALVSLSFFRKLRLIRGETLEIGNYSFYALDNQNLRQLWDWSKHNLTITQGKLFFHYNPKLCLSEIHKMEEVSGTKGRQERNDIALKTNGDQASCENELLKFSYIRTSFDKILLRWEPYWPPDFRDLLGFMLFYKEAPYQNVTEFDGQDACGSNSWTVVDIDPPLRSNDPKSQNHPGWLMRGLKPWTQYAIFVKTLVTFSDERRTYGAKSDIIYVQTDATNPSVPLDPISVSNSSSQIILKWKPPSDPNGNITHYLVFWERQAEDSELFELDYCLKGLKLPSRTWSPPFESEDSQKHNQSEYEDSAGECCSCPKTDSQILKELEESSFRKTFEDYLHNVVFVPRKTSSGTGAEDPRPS
Chain of human IR (P06213 763-1382 partner limits assumed): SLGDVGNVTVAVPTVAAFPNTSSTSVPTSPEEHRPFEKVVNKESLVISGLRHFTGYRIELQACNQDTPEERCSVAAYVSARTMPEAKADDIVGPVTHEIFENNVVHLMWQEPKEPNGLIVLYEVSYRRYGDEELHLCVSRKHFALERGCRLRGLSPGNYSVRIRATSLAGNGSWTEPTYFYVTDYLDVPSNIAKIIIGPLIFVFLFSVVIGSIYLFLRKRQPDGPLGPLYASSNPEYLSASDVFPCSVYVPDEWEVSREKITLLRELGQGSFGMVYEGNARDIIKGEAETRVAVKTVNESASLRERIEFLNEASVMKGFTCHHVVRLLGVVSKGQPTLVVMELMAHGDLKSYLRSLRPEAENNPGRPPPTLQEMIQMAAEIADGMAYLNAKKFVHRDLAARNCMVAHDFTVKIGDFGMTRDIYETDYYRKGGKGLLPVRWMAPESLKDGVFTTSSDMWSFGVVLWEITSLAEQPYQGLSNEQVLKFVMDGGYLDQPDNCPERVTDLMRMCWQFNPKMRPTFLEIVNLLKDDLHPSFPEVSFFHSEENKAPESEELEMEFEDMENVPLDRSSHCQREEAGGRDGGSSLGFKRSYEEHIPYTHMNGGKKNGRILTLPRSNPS
For test [4], the target named is T3, ZFP-insulin (Sus scrofa, UniProt P01315).
T3 construct: purchased Sigma-Aldrich
T3 sequence (P01315 25-54 limits assumed): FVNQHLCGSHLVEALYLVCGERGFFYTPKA
T3 sequence (P01315 88-108 limits assumed): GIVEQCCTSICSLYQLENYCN
The test can be described thus: ITC titration of IR αCT peptide against ZFP-insulin. The class given is binding, Porcine. The settings on record: 25° C. Here is the method:
as §1, with “Porcine insulin (Sigma-Aldrich, USA) was prepared in a zinc-free-form (termed ZFP-insulin) by extensive dialysis against 0.1% (v/v) acetic acid followed by lyophilization.” left out
(§2) Peptides were prepared by dissolving in 10 mM HCl at ˜4 mg/ml concentration and then diluting with TBSA. […] All protein concentrations were determined by absorbance measurement at 280 nm using a NanoDrop 1000 spectrophotometer (Thermo Scientific, USA).
(§3) ITC experiments were performed using a VP-ITC isothermal titration calorimeter (MicroCal Inc., USA) with the calorimeter cell held at 25° C. […] Data were analyzed using the instrument's software incorporated within the Origin 7 software (OriginLab, USA) and in all cases fitted as a single-site interaction using the methodologies outlined in the instrument's manual.

The target of test [5] is T4, IGF-I (Homo sapiens, UniProt P05019).
T4 construct: purchased Novozymes GroPep (Australia)
T4 sequence (P05019 49-118 limits assumed): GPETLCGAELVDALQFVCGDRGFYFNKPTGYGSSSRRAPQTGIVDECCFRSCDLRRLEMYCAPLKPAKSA
Description: ITC titration of IGF-1R αCT peptide against IGF-I. It counts as binding. To be noted: 25° C. On the procedure: as §1, with “Porcine insulin (Sigma-Aldrich, USA) was prepared in a zinc-free-form (termed ZFP-insulin) by extensive dialysis against 0.1% (v/v) acetic acid followed by lyophilization.” left out
as §2, §3

Test [6] deals with T5, IR485 pre-complexed with a 10-fold molar ratio of IGF-1R classical αCT peptide (Homo sapiens, UniProt P06213+P08069, I448T/Q492K/Y171H).
T5 construct: host or cells: Lec8 mutant CHO cells (IR485)
T5 sequence (P06213 with tags, fused parts or gaps Y171H/I448T/Q492K limits assumed, other chains not shown): as the sequence (P06213 with tags, fused parts or gaps Y171H/I448T/Q492K) above
Description: ITC titration against IR485 pre-complexed with a 10-fold molar ratio of IGF-1R αCT peptide. The settings on record: 25° C., IR485 + 10 × IGF1R-αCT, mean of three ± SEM. The class given is binding. On the procedure:
as §1, with “Porcine insulin (Sigma-Aldrich, USA) was prepared in a zinc-free-form (termed ZFP-insulin) by extensive dialysis against 0.1% (v/v) acetic acid followed by lyophilization.” left out
as §2, §3

Broadly, the Kd is the concentration at which binding is half-saturated.

Where two headings read alike, the source gives them in different places. Bridge positions count the residues as written; N and C are the ends. Ends that are not written are not given here. Peptide text beside a SMILES is read from it. Some results are limits rather than exact numbers.

T1 sequence (P06213 with tags, fused parts or gaps Y171H/I448T/Q492K limits assumed, other chains not shown): as the sequence (P06213 with tags, fused parts or gaps Y171H/I448T/Q492K) above

`CC(C)C[C@H](NC(=O)[C@H](CCC(N)=O)NC(=O)[C@H](CCCNC(=N)N)NC(=O)[C@H](CCC(=O)O)NC(=O)[C@H](Cc1ccccc1)NC(=O)[C@H](Cc1c[nH]c2ccccc12)NC(=O)[C@H](CC(=O)O)NC(=O)[C@H](Cc1ccc(O)cc1)NC(=O)[C@H](Cc1ccccc1)NC(=O)[C@H](CO)NC(=O)[C@H](CCC(=O)O)NC(=O)[C@H](CC(=O)O)NC(=O)[C@H](CC(C)C)NC(=O)[C@H](CO)NC(=O)CN)C(=O)NCC(=O)O` [S519C16]: in test [1], the “ΔH^0” value is -7.89 ± 0.48 kcal/mol and the “−TΔS^0” value was -2.63 ± 0.72 kcal/mol. The Kd in test [2] is 0.0026 ± 0.0007 µM. For the same compound, in test [2] (ITC, 25° C.), the “ΔH^0” value is -14.6 ± 0.96 kcal/mol and the “−TΔS^0” value came out at 2.87 ± 0.96 kcal/mol.

`CC(C)C[C@H](NC(=O)[C@@H](N)CO)C(=O)N[C@@H](CCC(=O)O)C(=O)N[C@@H](CCC(=O)O)C(=O)N[C@@H](CCC(=O)O)C(=O)N[C@@H](Cc1c[nH]c2ccccc12)C(=O)N[C@@H](C)C(=O)N[C@@H](CCC(N)=O)C(=O)N[C@H](C(=O)N[C@@H](CCC(=O)O)C(=O)N[C@H]1CSSC[C@@H](C(=O)N2CCC[C@H]2C(=O)N[C@@H](CO)C(=O)O)NC(=O)CNC(=O)[C@H](CCCNC(=N)N)NC(=O)CNC(=O)[C@H](Cc2ccc(O)cc2)NC(=O)[C@H](C(C)C)NC(=O)[C@H](CCC(=O)O)NC1=O)C(C)C` [S519N20] (H-SLEEEWAQVECEVYGRGCPS-OH; disulfide 11-18) yielded a Kd in test [2] of over 1000 µM.

For `CC(C)C[C@H](NC(=O)[C@H](CCC(N)=O)NC(=O)[C@H](CCCNC(=N)N)NC(=O)[C@H](CCC(=O)O)NC(=O)[C@H](Cc1ccccc1)NC(=O)[C@H](Cc1c[nH]c2ccccc12)NC(=O)[C@H](CC(=O)O)NC(=O)[C@H](Cc1ccc(O)cc1)NC(=O)[C@H](Cc1ccccc1)NC(=O)[C@H](CO)NC(=O)[C@H](CCC(=O)O)NC(=O)[C@H](CC(=O)O)NC(=O)[C@H](CC(C)C)NC(=O)[C@H](CO)NC(=O)CNC(=O)[C@H](CO)NC(=O)[C@@H]1CCCN1C(=O)[C@@H]1CSSC[C@H](NC(=O)[C@H](CCC(=O)O)NC(=O)[C@@H](NC(=O)[C@H](CCC(N)=O)NC(=O)[C@H](C)NC(=O)[C@H](Cc2c[nH]c3ccccc23)NC(=O)[C@H](CCC(=O)O)NC(=O)[C@H](CCC(=O)O)NC(=O)[C@H](CCC(=O)O)NC(=O)[C@H](CC(C)C)NC(=O)[C@@H](N)CO)C(C)C)C(=O)N[C@@H](CCC(=O)O)C(=O)N[C@@H](C(C)C)C(=O)N[C@@H](Cc2ccc(O)cc2)C(=O)NCC(=O)N[C@@H](CCCNC(=N)N)C(=O)NCC(=O)N1)C(=O)NCC(=O)O` [S519] (H-SLEEEWAQVECEVYGRGCPSGSLDESFYDWFERQLG-OH; disulfide 11-18; N-terminus and C-terminus assumed), the Kd in test [2] is 0.011 ± 0.003 µM. In test [2] (ITC, 25° C.), the “ΔH^0” value is -16.5 ± 1.4 kcal/mol and the “−TΔS^0” value worked out at 5.74 ± 1.4 kcal/mol. Besides, in test [3], the Kd is 0.02 nM.

As for TFEDYLHNVVAVPRPS [IR-αCT.714A], in test [2], the affinity, expressed as Kd, was 6.5 ± 1.7 µM.

With TFEDYLHNVVFVPRPS [IR-αCT], the Kd in test [4] (interaction with ZFP-insulin, read-out: Kd (estimated, weaker than)) is over 1000 µM; in test [4] (sample ZFP-insulin 20 μM, titrant 200 μM, read-out: Kd), over 1000 µM; in test [2] it was 3.9 ± 1.1 µM.

As for VFENFLHNSIFVPRPE [IGF1R-αCT], the Kd in test [2] was 17.6 ± 2.1 µM; in test [5] (interaction with IGF-I, read-out: Kd (estimated, weaker than)), over 1000 µM; in test [5] (sample IGF-I (printed IGF-IR) 20 μM, titrant 200 μM, read-out: Kd), over 1000 µM.

For the compound “ZFP-insulin: Porcine insulin (Sigma-Aldrich) prepared in a zinc-free form by dialysis against acetic acid and lyophilization”, the Kd is 0.017 ± 0.004 µM in test [1]; 0.0057 ± 0.0011 µM in test [6]; over 1000 µM in test [2] (ITC, 25° C., TBSA, sample IR485, mean of three experiments ± SEM, single-site model, read-out: Kd).
